According to patent publication US9834564B2, “Substituted quinolines as PDE-10 inhibitors” (priority 2010, dated 2017):
Read-outs that look alike come from different tables or passages of the source.

Biological target: recombinant human PDE-10 enzyme (PDE-10A) (Homo sapiens (Human), UniProt Q9Y233)
Assay: IMAP PDE Fluorescence Polarization assay, human PDE-10 inhibition (enzyme assay)
Assay type: biochemical
Procedure: In one embodiment, the compounds provided herein were assayed for their ability to inhibit human PDE-10A. In one embodiment, the activities of the compounds were determined using the Molecular Devices IMAP PDE Fluorescence Polarization assay using recombinant human PDE-10 enzyme expressed in a baculoviral system. Briefly, 10 μL of a compound (0.2 nM-20 μM) was added to either a 96-well half area black plate or a 384-well black plate along with 10 μL of Fluorescein-labeled cAMP/cGMP substrate as per manufacturer's instructions and 10 μL of PDE enzyme (activity 0.1 U). Following a 40-minute incubation at 37° C., 60 μL of IMAP binding reagent was added. […] The data was analyzed using Prism Software (GraphPad Inc, San Diego, Calif.).

[1] = recombinant human PDE-10, fluorescein-labeled cAMP/cGMP substrate, 40 min at 37° C.

recombinant human PDE-10 enzyme (PDE-10A), sequence (Q9Y233 whole entry): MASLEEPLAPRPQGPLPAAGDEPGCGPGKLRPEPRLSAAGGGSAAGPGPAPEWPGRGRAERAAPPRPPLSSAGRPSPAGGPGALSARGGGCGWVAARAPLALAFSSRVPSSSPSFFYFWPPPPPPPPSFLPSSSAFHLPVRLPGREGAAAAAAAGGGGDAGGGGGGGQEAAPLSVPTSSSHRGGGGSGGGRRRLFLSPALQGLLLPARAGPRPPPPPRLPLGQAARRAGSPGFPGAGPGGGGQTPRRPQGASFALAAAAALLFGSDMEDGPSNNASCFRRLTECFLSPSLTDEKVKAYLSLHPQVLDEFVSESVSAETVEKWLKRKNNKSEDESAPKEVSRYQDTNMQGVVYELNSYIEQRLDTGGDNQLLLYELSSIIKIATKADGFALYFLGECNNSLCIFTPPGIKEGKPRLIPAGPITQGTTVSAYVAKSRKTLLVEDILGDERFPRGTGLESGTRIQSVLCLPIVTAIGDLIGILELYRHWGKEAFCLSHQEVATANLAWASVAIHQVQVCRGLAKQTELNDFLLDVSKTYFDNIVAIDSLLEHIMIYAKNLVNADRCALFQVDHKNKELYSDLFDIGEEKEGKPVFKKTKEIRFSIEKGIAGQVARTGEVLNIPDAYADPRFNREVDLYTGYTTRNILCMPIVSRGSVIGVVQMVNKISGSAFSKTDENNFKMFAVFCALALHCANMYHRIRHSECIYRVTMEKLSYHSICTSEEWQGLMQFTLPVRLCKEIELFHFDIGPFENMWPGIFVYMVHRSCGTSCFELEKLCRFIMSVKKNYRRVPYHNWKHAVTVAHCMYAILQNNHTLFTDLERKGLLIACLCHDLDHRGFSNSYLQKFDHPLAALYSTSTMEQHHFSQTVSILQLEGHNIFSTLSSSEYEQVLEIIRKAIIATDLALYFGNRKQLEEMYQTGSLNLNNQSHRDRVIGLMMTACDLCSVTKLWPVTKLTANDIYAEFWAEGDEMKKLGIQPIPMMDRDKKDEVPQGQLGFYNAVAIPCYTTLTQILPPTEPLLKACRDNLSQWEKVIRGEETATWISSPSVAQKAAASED

| Structure (SMILES) | IC50 [1] [nM] | IC50 [nM] |
| --- | --- | --- |
| c1cnc2c(c1)ccc1ccc(CCc3nc4ccccn4n3)nc12 [Compound 156] | < 500 | – |
| O=c1[nH]c(CCc2nc(-c3ccccc3)cs2)nc2ccccc12 [Compound 116] | < 500 | – |
| c1cnc2ccc(CCc3nc4c5cccnc5ccn4n3)nc2c1 [Compound 176] | < 500 | – |
| O=c1[nH]c(CCc2nc3ccccc3[nH]2)nc2ccccc12 [Compound 21] | 1000 to 10000 | – |
| Cc1ncc(C)n2nc(CCc3nc4ccccc4cc3F)nc12 [Compound 127] | < 500 | – |
| O=c1[nH]c(CCc2cc(-c3ccccc3)no2)nc2ccccc12 [Compound 113] | > 10000 | – |
| Cc1ccc2ncc(CCc3nc4c(C)ncc(C)n4n3)nc2c1C [Compound 135] | < 500 | – |
| Cc1ncc(C)n2nc(CCc3ccc4ccc5c(c4n3)NCCO5)nc12 [Compound 168] | 1000 to 10000 | – |
| c1ccc(-c2c[nH]c(CCc3ccccn3)n2)cc1 [Compound 33] | > 10000 | – |
| Cn1c(CCc2ccc3ccc4cccnc4c3n2)nc2c3cccnc3ccc21 [Compound 171] | < 500 | – |
| c1cnc2c(c1)ccc1ccc(CCc3cnc4ccccc4n3)nc12 [Compound 158] | < 500 | – |
| Cc1ccc(C)c2nc(CCc3nc4c(ccc5ncccc54)[nH]3)cnc12 [Compound 87] | < 500 | – |
| Cn1c(CCc2ccc3ccccc3n2)nc2c3ccccc3ccc21 [Compound 90] | < 500 | – |
| Cc1cnc(C)c(CCc2nc(-c3ccccc3)cn2C)n1 [Compound 172] | < 500 | – |
| O=c1[nH]c(/C=C/c2ccc(-c3ccccc3)s2)nc2ccccc12 [Compound 38] | > 10000 | – |
| Fc1cnc2nc(CCc3nc4c5cccnc5ccn4n3)ccc2c1 [Compound 181] | < 500 | – |
| Cn1c(CCc2ccc3cnccc3n2)nc2c3ncccc3ccc21 [Compound 163] | < 500 | – |
| O=c1[nH]c(CCc2nc(-c3ccccc3C(F)(F)F)c[nH]2)nc2ccccc12 [Compound 62] | 1000 to 10000 | – |
| Cc1ccc2ccc(CCc3cn4ccc5ncccc5c4n3)nc2n1 [Compound 196] | 500 to 1000 | – |
| Cn1c(CCc2ccc3cccnc3n2)nc2c3cccnc3ccc21 [Compound 203] | < 500 | – |
| Cn1cc(-c2ccncc2)nc1CCc1ccc2ccccc2n1 [Compound 41] | 1000 to 10000 | – |
| Cn1c(CCc2cnc3ccccc3n2)nc2ccccc21 [Compound 26] | 1000 to 10000 | – |
| c1ccc(-c2ncc(CCc3cnc4ccccc4n3)o2)cc1 [Compound 80] | > 10000 | – |

| Structure (SMILES) | IC50 [1] [nM] | IC50 [nM] |
| --- | --- | --- |
| Cn1c(CCc2cnc3ccccc3n2)nc2c3c(ccc21)NCCC3 [Compound 192] | < 500 | – |
| c1ccc2nc(CCc3nc4c5ncccc5ccn4n3)ccc2c1 [Compound 153] | < 500 | – |
| O=c1[nH]c(CCc2nc3ccccc3s2)nc2ccccc12 [Compound 112] | > 10000 | – |
| Cc1ncc(C)n2nc(CCc3ccc4cccnc4n3)nc12 [Compound 138] | < 500 | – |
| Cc1ncc(C)n2nc(CCc3ccc4ccc5ccccc5c4n3)nc12 [Compound 130] | 500 to 1000 | – |
| Cn1c(CCc2nc(-c3ccccc3)c[nH]2)nc2ccccc2c1=O [Compound 10] | 1000 to 10000 | – |
| c1ccc2nc(CCc3cn4ccc5ncccc5c4n3)cnc2c1 [Compound 189] | < 500 | – |
| Cc1ncc(C)c2nc(CCc3nc4c5ncccc5ccc4n3C)ccc12 [Compound 164] | < 500 | – |
| c1ccc(-c2nc(CCc3cnc4ccccc4n3)n3c2CCCC3)cc1 [Compound 114] | < 500 | – |
| c1ccc2nc(CCc3cn4ccccc4n3)cnc2c1 [Compound 119] | 1000 to 10000 | – |
| Cc1ccc2nc(CCc3cn4ccc5ncccc5c4n3)ccc2n1 [Compound 200] | < 500 | – |
| Cc1cnc2nc(CCc3nc4c5cccnc5ccn4n3)ccc2c1 [Compound 180] | < 500 | – |
| Cc1ccc(-c2cn(C)c(CCc3cnc4ccccc4n3)n2)cn1 [Compound 173] | > 10000 | – |
| O=c1[nH]c(CCn2cnc(-c3ccccc3)c2)nc2ccccc12 [Compound 27] | 1000 to 10000 | – |
| c1ccc(-c2c[nH]c(CCc3ncc4ccccc4n3)n2)cc1 [Compound 13] | < 500 | – |
| c1ccc2nc(CCc3nc4c5cccnc5ccn4n3)cnc2c1 [Compound 188] | < 500 | – |
| Cc1nc(CCc2nc3c4cccnc4ccc3n2C)nc2ccccc12 [Compound 209] | < 500 | – |
| O=c1[nH]c(CCc2cc(-c3ccccc3)n[nH]2)nc2ccccc12 [Compound 14] | 1000 to 10000 | – |
| c1ccc2nc(CCc3nc4cc5c(cc4[nH]3)OCO5)cnc2c1 [Compound 98] | 1000 to 10000 | – |
| c1ccc2nc(CCc3ccc4ccc5cccnc5c4n3)ccc2c1 [Compound 159] | < 500 | – |
| Cc1c(CCc2ccc3cc(F)cnc3n2)nc2c3cccnc3ccn12 [Compound 183] | < 500 | – |
| Cc1ncc(C)n2nc(CCc3ccc4ncccc4n3)nc12 [Compound 140] | < 500 | – |
| c1ccc(-c2c[nH]c(CCc3cccs3)n2)cc1 [Compound 29] | > 10000 | – |

| Structure (SMILES) | IC50 [1] [nM] | IC50 [nM] |
| --- | --- | --- |
| FC(F)(F)Oc1ccc2[nH]c(CCc3cnc4ccccc4n3)nc2c1 [Compound 105] | 1000 to 10000 | – |
| Cn1cc(-c2ccccc2)nc1CCc1cccc(-c2ccncc2)n1 [Compound 152] | 1000 to 10000 | – |
| Cc1ncc(C)n2nc(CCc3ccc4ccc(Cl)c(Cl)c4n3)nc12 [Compound 132] | 500 to 1000 | – |
| Cc1ncc(C)n2nc(CCc3ccc4ccc5cccnc5c4n3)nc12 [Compound 133] | < 500 | – |
| Cn1c(CCc2cccc(-c3ccccn3)n2)nc2c3cccnc3ccc21 [Compound 206] | 500 to 1000 | – |
| Cc1cnc2nc(CCc3nc4c5cccnc5ccn4c3C)ccc2c1 [Compound 184] | < 500 | – |
| c1ccc2nc(CCc3nc(-c4ccncc4)c[nH]3)cnc2c1 [Compound 74] | 1000 to 10000 | – |
| O=c1[nH]c(/C=C/c2nc3ccccc3[nH]2)nc2ccccc12 [Compound 22] | > 10000 | – |
| Cc1c(CCc2ccc3ncccc3n2)nc2c3cccnc3ccn12 [Compound 201] | < 500 | – |
| Cn1cc(-c2ccccc2)nc1CCc1cccc(-n2ccnc2)n1 [Compound 150] | 1000 to 10000 | – |
| c1cnc2ccc(CCc3cn4ccc5ncccc5c4n3)nc2c1 [Compound 199] | < 500 | – |
| C(=C\c1nc(-c2ccccc2)c[nH]1)/c1ccccn1 [Compound 32] | > 10000 | – |
| COc1cc2nc(CCc3cnc4ccccc4n3)[nH]c2cc1OC [Compound 96] | 1000 to 10000 | – |
| Cn1c(CCc2cnc3c(F)ccc(F)c3n2)nc2c3cccnc3ccc21 [Compound 148] | < 500 | – |
| Cn1c(CCc2ccc3ccccc3n2)nc2c3cccnc3ccc21 [Compound 85] | < 500 | – |
| Cn1nc(-c2ccccc2)cc1CCc1nc2ccccc2c(=O)[nH]1 [Compound 15] | 1000 to 10000 | – |
| O=c1[nH]c(CCc2nc(-c3ccccc3)c[nH]2)nc2cc3ccccc3cc12 [Compound 6] | > 10000 | – |
| COc1cccc2ccc(CCc3nc4c5ncccc5ccc4n3C)nc12 [Compound 160] | 500 to 1000 | – |
| O=c1[nH]c(CCc2nc3ccccc3o2)nc2ccccc12 [Compound 109] | > 10000 | – |
| Cc1ncc(C)n2nc(CCc3ccc4ccncc4n3)nc12 [Compound 139] | 1000 to 10000 | – |
| Cc1ccc2ccc(CCc3nc4c(C)ncc(C)n4n3)nc2c1C [Compound 128] | < 500 | – |
| c1cncc(-c2c[nH]c(CCc3cnc4ccccc4n3)n2)c1 [Compound 78] | < 500 | – |
| O=c1[nH]c(CCc2nc(-c3ccc(-c4ccccc4)cc3)c[nH]2)nc2ccccc12 [Compound 63] | > 10000 | – |

| Structure (SMILES) | IC50 [1] [nM] | IC50 [nM] |
| --- | --- | --- |
| FC(F)(F)c1cnc2nc(CCc3nc4c5cccnc5ccn4n3)ccc2c1 [Compound 182] | > 10000 | – |
| c1ccc(-c2csc(CCc3cnc4ccccc4n3)n2)cc1 [Compound 108] | < 500 | – |
| Cn1cc(-c2cccc(F)c2F)nc1CCc1ccc2ccccc2n1 [Compound 44] | 500 to 1000 | – |
| Cc1ncc(C)n2nc(CCc3ccc4ccc(F)c(F)c4n3)nc12 [Compound 131] | < 500 | – |
| FC(F)(F)c1ccc2[nH]c(CCc3cnc4ccccc4n3)nc2c1 [Compound 104] | 1000 to 10000 | – |
| Cc1cnc(C)c(CCc2nc3c4cccnc4ccc3n2C)n1 [Compound 205] | < 500 | – |
| Cc1ccnc2ccc(CCc3nc4c5cccnc5ccn4c3C)nc12 [Compound 187] | < 500 | – |
| O=c1[nH]c(CCc2nc(-c3cc4ccccc4o3)c[nH]2)nc2ccccc12 [Compound 53] | 1000 to 10000 | – |
| O=c1[nH]c(CCc2ccc(-c3ccccc3)s2)nc2ccccc12 [Compound 37] | > 10000 | – |
| Cn1cc(-c2ccccc2)nc1CCc1cccc(C(N)=O)n1 [Compound 151] | > 10000 | – |
| Cn1c(/C=C/c2nc(-c3ccccc3)c[nH]2)nc2ccccc2c1=O [Compound 9] | – | > 10000 |
| c1ccc2nc(CCc3nc4ccccc4s3)cnc2c1 [Compound 117] | 1000 to 10000 | – |
| Cc1ncc(C)n2nc(CCc3ccc4ccc5c(c4n3)NCCC5)nc12 [Compound 137] | < 500 | – |
| Cn1c(CCc2ccc3ccccc3n2)nc2ccc3ccccc3c21 [Compound 91] | 1000 to 10000 | – |
| COc1cc2nc(CCc3nc(-c4ccccc4)c[nH]3)[nH]c(=O)c2cc1OC [Compound 7] | > 10000 | – |
| Cn1c(CCc2cnc3c(C(F)(F)F)ccc(C(F)(F)F)c3n2)nc2c3cccnc3ccc21 [Compound 143] | < 500 | – |
| c1ccc(-c2c[nH]c(CNc3cnc4ccccc4n3)n2)cc1 [Compound 121] | 1000 to 10000 | – |
| Fc1cc2[nH]c(CCc3cnc4ccccc4n3)nc2cc1Cl [Compound 101] | 500 to 1000 | – |
| O=c1[nH]c2ccccc2nc1CCc1nc(-c2ccccc2)c[nH]1 [Compound 2] | < 500 | – |
| Cc1ncc(C)n2nc(CCc3ccc4c(F)ccc(F)c4n3)nc12 [Compound 129] | 500 to 1000 | – |
| Cc1ccc2nc(CCc3nc4c(C)ncc(C)n4n3)cnc2c1C [Compound 136] | < 500 | – |
| Cc1ccc(-c2cn(C)c(CCc3ccc4ncccc4n3)n2)cn1 [Compound 174] | 500 to 1000 | – |
